{"source": "paper PMC6982022", "about": "(International Journal of Molecular Sciences, 2019)", "key": {"rodent model of diabetes": {"test_system": "rodent model of diabetes", "set-up": "method as in PMID 20000679", "details": "ref 36; cited from earlier work"}, "[1]": {"set-up": "method as in PMID 17624027", "details": "male and female CD rats, oral [3H]-NB-DNJ 160 mg/kg, cited from earlier work"}, "male CD rats": {"test_system": "male CD rats", "assay": "Rat mating trial (fertility)", "format": "in vivo", "details": "15 mg/kg/day oral, 35 days; data not presented", "protocol": "Eighteen adult male CD rats were divided into three groups of six rats each. One group of six CD rats was treated with vehicle (distilled water containing 0.9% benzyl alcohol) via oral gavage (5 mL/kg/day), and the second group (6 rats) was treated with NB-DGJ (in distilled water containing 0.9% benzyl alcohol) via oral gavage at 150 mg/kg/day (in approximately 5 mL/kg of water) daily for 35 consecutive days. The third group (6 rats) was treated with 15 mg/kg NB-DNJ in distilled water containing 0.9% benzyl alcohol) via oral gavage (in approximately 5 mL/kg of water) daily for 35 consecutive days (Figure S5).\nRats were weighed on day 0 (first day of dosing) and weekly thereafter. Dosages were adjusted based on the most recent body weight. Males were cohabited with untreated females (one male per two females) weekly at weeks 1 through 9 [38, 39]. Females were necropsied seven days after separation from males to determine the numbers of implantation sites. Individual male rats were bled from the tail vein at weeks 0, 1, 4, and 7 and serum was harvested by centrifugation. At week 11, the male rats were weighed, anesthetized, and exsanguinated. Sera were analyzed for inhibin B by ELISA (enzyme-linked immunosorbent assay), and rat follicle stimulating hormone (rFSH) and testosterone by radioimmunoassay. Testes, epididymides, ventral prostates, and seminal vesicles were excised and weighed. The left testis was homogenized, and spermatid head counts obtained.\nStatistical analysis using the Student’s t-test was performed on body weights, paired testes weights, ventral prostrate weights, seminal vesicle weights, paired epididymal weights, spermatid head counts, percent motile and normal epididymal sperm. We used analysis of variance (ANOVA) for serum inhibin B, rFSH, and testosterone, since these measurements were repeated throughout the study period. The effect of NB-DNJ at 15 mg/kg/day dose in the rat model was studied following the same protocol as that for NB-DGJ."}, "human subjects": {"test_system": "human subjects", "set-up": "method as in PMID 17067996, PMID 10801168, PMID 7905523", "details": "ref 25, 26, 27; cited from earlier work"}, "C57BL6J mice [2]": {"test_system": "C57BL6J mice", "assay": "Testis histology (H&E) after 35 days oral dosing", "format": "in vivo, mouse", "details": "15, 25 or 50 mg/kg, oral daily", "protocol": "(§1) Groups of six mice, each, were used for three different doses of NB-DNJ or NB-DGJ formulated in milliQ water at 50 mg/kg, 25 mg/kg and 15 mg/kg, respectively. Control groups were given an equivalent volume of water. Animals were given compound or control once daily for 35 consecutive days via oral gavage using animal feeding needles (Biomedical Needles, Popper, NY, USA). Body weight was noted every week for all treatment groups. Mice were euthanized at the end of a 35 days dosing regimen using CO2 asphyxia followed by cervical dislocation. Testes were harvested, weighed and stored in Bouin’s fixative for 48 h, then sliced into two halves, and stored in fresh Bouin’s for another 24 h. The tissue slices were then rinsed in 70% ethanol and processed and stained for histology using a standard protocol for Hematoxylin and eosin staining. Spermatids with elongated and abnormally shaped heads were counted per 20 fields and average number calculated for 6 mice/group."}, "C57BL6J mice [3]": {"test_system": "C57BL6J mice", "assay": "Epididymal sperm acrosome morphology (FITC-PSA staining) after 35 days oral dosing", "format": "in vivo, mouse", "details": "15, 25 and 50 mg/kg oral daily", "protocol": "as §1\nFor sperm retrieval, epididymis was removed from the animal and placed in Petri dish. One mL of capacitation buffer (Capacitation buffer consisted of 110 mM NaCl, 2.68 mM KCl, 0.36 mM NaH2PO4, 25 mM NaHCO3, 0.49 mM MgCl2, 2.40 mM CaCl2, 25 mM HEPES, 5.50 mM Glucose, 1 mM Pyruvic acid, pH 7.4; Tash and Bracho, 1998) at room temperature was added to the dish. Using forceps, the caput of the epididymis was held in place and the cauda sliced repeatedly with a razor blade. The spermatozoa were allowed to disperse for 15 min with gentle swirling intermittently. A 100 µL aliquot of the sperm suspension was dropped onto a standard glass microscope slide (Fisherbrand superfrost microscope slides 25 × 75 × 1.0 mm)) and smeared with side of pipette tip. The slides were air dried flat for 1 h at room temperature. The sperm smear was fixed in methanol for 2 min. The sperm smear was than stained using FITC-PSA (Fluorescein isothiocyanate Pisum Sativum Agglutinin; Vector Laboratories, Burlingame, CA) was diluted 1:7000 in PBS containing 1:10,000 DAPI dihydrochloride, FluoroPure™ grade, Invitrogen) (≥98% pure) to make the stock solution. To each slide, 100 µL of FITC-PSA was added and spread out with edge of pipette tip to cover the dried sperm smear. The slides were incubated at 37 °C for 10 min, and then washed with 5 changes of PBS for 5 min each. The slides were air-dried and mounted with 20 µL Vectashield mounting medium for fluorescence (Vector Laboratories, Burlingame, CA, USA) and observed. Slides were viewed on a Nikon IX-81 microscope under a 40× objective using FITC and DAPI filter to visualize acrosome morphology. The phase contrast images were also collected at the same magnification to compare morphological details."}, "C57BL/6 mice": {"test_system": "C57BL/6 mice", "details": "cited from earlier work"}, "GBA2": {"test_system": "GBA2", "details": "ref 15; cited from earlier work"}, "[4]": {"details": "C57BL/6 mice, daily oral 15 mg/kg"}}, "note": "Where two headings read alike, the source gives them in different places."}
{"smiles": "OC[C@@H]1[C@@H](O)[C@H](O)[C@@H](O)CN1CCCCCOCC12CC3CC(CC(C3)C1)C2", "values": [{"measurement": "Control of hyperglycemia (in words)", "setting": "rodent model of diabetes", "value": "potently control hyperglycemia"}]}
{"smiles": "CCCCN1C[C@H](O)[C@@H](O)[C@H](O)[C@H]1CO", "note": "[NB-DNJ, N-butyldeoxynojirimycin]", "values": [{"measurement": "Cmax", "setting": "[1]", "value": "13,800 ng/mL"}, {"measurement": "tmax", "setting": "[1]", "value": 0.5, "unit": "h"}, {"measurement": "t½", "setting": "[1]", "value": 4.5, "unit": "h"}, {"measurement": "Cmax", "setting": "[1]; read-out: Cmax in molar units", "value": "~63", "unit": "µM"}, {"measurement": "Effect on fertility in mating trial (in words)", "setting": "male CD rats", "value": "did not show effect on fertility by week 6"}, {"measurement": "Effect in human subjects (sperm counts, semen parameters)", "setting": "human subjects", "value": "no effect"}, {"measurement": "Testis histology, spermatid heads (in words)", "setting": "C57BL6J mice [2]", "value": "rounded, abnormally shaped spermatid heads"}, {"measurement": "Sperm acrosome morphology (in words)", "setting": "C57BL6J mice [3]", "value": "abnormal acrosome in all spermatozoa"}, {"measurement": "Time to return of fertility after cessation", "setting": "C57BL/6 mice; C57BL/6 mice, 15 mg/kg", "value": "three weeks"}, {"measurement": "Effect on fertility (in words)", "setting": "C57BL/6 mice; [4]", "value": "Reversible inhibition of fertility"}, {"measurement": "Time of daily dosing until inhibition of fertility was observed", "setting": "C57BL/6 mice; [4]", "value": "three weeks"}, {"measurement": "Strain/species specificity of male contraceptive activity (in words)", "setting": "C57BL/6 mice; ref 24", "value": "only effective as a male contraceptive in C57BL/6 and C57BL/6-related mice"}]}
